From patent US4132738A, “Preparation of 15-deoxy-16-hydroxyprostaglandins” (Miles Laboratories, Inc., priority 1978, dated 1979)

How the values were obtained:
[1] = system: gastric secretion in the rat; experiment: Effects on gastric secretion in the rat; format: in vivo; conditions: for GAS value, carbinol versus methyl ester analogue: comparison in words
Description: A procedure based on that described by Lipman, W. (J. Pharm. Pharmacol., 21: 335 [1968]) was used to assess the influence of test compounds on gastric secretion. Rats of one sex weighing 150 to 200 g were randomly divided into groups of six animals each and fasted for 48 hours previous to the experiments, water being available ad libitum. The animals were anesthetized with ether, the abdomen opened through a midline incision, and the pylorus ligated. Test compounds were diluted from stock solution so as to administer a dose of 1.5 mg/kg in a volume equivalent to 1 ml/kg. Subcutaneous injections were applied immediately after surgery and again 2 hours later, so that a total dose of 3.0 mg/kg was administered. Dilutions were made with phosphate buffer (pH 7.38) as recommended by Lee et al. (Prostaglandins, 3: 29 [1973]) in order to insure adequate stability of drugs at the subcutaneous depot. Each compound was tested in one group of rats; an additional control group received only the vehicle.
Four hours after pyllric ligation the animals were killed with ether, the cardias ligated, and the stomachs removed. The volume of gastric secretion was measured and the contents centrifuged at 5000 rpm for 10 minutes. Total acid in the supernatant was titrated against a 0.1 N sodium hydroxide solution and the amount expressed in mEq.
Volume and total acid values of the treated group were compared with those of the controls […]. Antisecretory activity was scored according to the following scale: […]

guinea pig trachea = experiment: Effects on the guinea pig trachea in vitro; format: cell-based; conditions: comparison in words
Description: A male guinea pig weighing 200-500 g was killed by a blow on the head. A 20 mm length of the trachea was dissected from the animal, transferred to a petri dish containing Krebs' solution (aerated with 95% O2 and 5% CO2 at 37° C.), and cut longitudinally opposite the tracheal muscle. The tissue was then cut transversely three quarters of the distance across, a second cut in the opposite direction (again three quarters of the distance across the tissue) was made and the procedure was continued for the whole tissue. The ends of the trachea were pulled to form a zig-zig shaped strip. The tracheal strip used in the experiment was approximately 30 mm when extended under 0.25-0.5 g load in the tissue bath. Cotton thread was tied to one end of the tissue, and linen thread to the other. It was attached via the linen thread to a glass hook in a 5 ml isolated tissue bath containing Krebs' solution (37° C., aerated with a mixture of 95% O2 and 5% CO2). The opposite end was attached via cotton to an isotonic Harvard transducer (Model 386 Heart/Smooth Muscle Transducer, Harvard Apparatus). The load on the transducer lever was small, usually 0.3 g, with a range of 0.25-0.5 g, and the magnification high, 80 fold using an appropriate twin-channel pen recorder. A minimum of thirty minutes was allowed before applying a test compound to the tissue. Test compounds were then applied (in volumes of 0.5 ml) at thirty minute intervals, being in contact with the tissue for five minutes followed by an overflow washout time of twenty seconds.
Prostaglandin E1, at a bath concentration of 0.1 mcg/ml, was then tested repeatedly on two such strips, obtained from two different animals, until two responses (the values of which are recorded) differing by no more than 25% occur. A test compound was then added to the same two strips at bath concentrations of 0.01, 0.1, 1.0, and 10.0 mcg/ml and the effects of the compound were recorded. After the test compound had been evaluated at the highest concentration, PGE1 was retested at 0.1 mcg/ml (and the value of the response recorded) to insure that the viability of the strips was retained during the experiment. The mean of the effects of the test compound on the two strips was then calculated for each concentration, and, biased on the resulting values, an activity value was assigned as follows: […]

[2] = system: blood pressure in the hypertensive rat; experiment: Effects on systolic blood pressure in the hypertensive rat; format: in vivo; design: key: 0: Not significant at any time interval; 1: Significant at one time interval; 2: Significant at two time intervals; conditions: 1 mg/kg intraperitoneal; 2, 4, 6 and 9 hours
Description: The acute anithypertensive activity of test compounds was determined in rats made hypertensive by the procedure of Grollman (Proc. Soc. Exper Biol. Med., 57: 102 [1944]). Female rats weighing between 60 and 100 g were anesthetized with ether, the right kidney approached through a flank retroperitoneal incision, decapsulated and tied with a figure-of-eight-ligature. The animals were left to recover and two weeks later were again anesthetized and the contralateral kidney removed. Four weeks after the second operation the rats were subjected to indirect blood pressure measurements and those showing systolic pressure values greater than 160 mmHg were selected for drug testing.
Blood pressure was measured in the tail with an inflatable occluding cuff placed at the base of the extremity and a pulse detector located distally. The cuff was inflated to approximately 300 mmHg and was slowly deflated until pulsations appeared, indicating the level of systolic pressure; diastolic pressure was not recorded by this procedure. All measurements were carried out in unanesthetized, unsedated animals maintained in a warm environment during the recording procedure and for at least 6 hours before. In all cases, three pressure readings were obtained in succession and mean values were calculated thereof.
Experiments were carried out in groups of five hypertensive rats in which systolic pressure was determined immediately before and 2, 4, 6 and 9 hours after intraperiotoneal administration of the test compound at a dose of 1 mg/kg. Drugs were diluted from stock solutions with phosphate buffer (Lee et. al., Prostaglandins, 29 [1973]), so as to inject this quantity in a volume of 1 ml/kg. Changes from control blood pressure values were calculated for each interval both in mmHg and in percent, and evaluated for significance by means of Wilcoxon's signed rank test (Wilcoxon, R. and Wilcox, R. A., "Some Rapid Approximate Statistical Procedures," Lederle Laboratories, Pearl River [1964]).

Compound | GAS value, carbinol versus methyl ester analogue [1] | Guinea pig trachea value, carbinol versus methyl ester analogue (guinea pig trachea) | Blood Pressure Hypertensive Rat: activity value [2] | GAS activity ([1]; result in words)
CCCC(C)C(O)C/C=C/[C@H]1[C@H](O)CC(=O)[C@@H]1CCCCCCCO (stereo partly drawn) [TR 4749, 1, 11α, 16RS-trihydroxy-17RS-methylprost-13E-en-9-one] | lower | lower | 0 | –
O=C1C[C@@H](O)[C@H](/C=C/CC2(O)CCCCC2)[C@H]1CCCCCCCO [TR 4703, 16, 20-Methano-1, 11α, 16-trihydroxyprost-13E-en-9-one] | – | – | 0 | –
COC(=O)CCCCCC[C@H]1C(=O)C[C@@H](O)[C@@H]1/C=C/CC1(O)CC2CCC1C2 (stereo partly drawn) [TR 4883, Methyl 11α,16RS-dihydroxy-16,20-methano-17,20-methano-9-oxoprost-13E-en-1-oate] | – | – | 1 | –
COC(=O)CCCCCC[C@H]1C(=O)C[C@@H](O)[C@@H]1/C=C/CC1(O)CCCCC1 [TR 4717, Methyl 11α, 16RS-dihydroxy-16, 20-methano-9-oxoprost-13E-en-1-oate] | – | – | 0 | –
COC(=O)CCCCCC[C@H]1C(=O)C[C@@H](O)[C@@H]1/C=C/CC1(O)CC2C=CCC21 (stereo partly drawn) [TR 4800, Methyl 11α, 16RS-dihydroxy-16, 18-methano-17, 20-methano-9-oxoprosta-13E, 19-dien-1-oate] | – | – | 0 | –
CCCC(C)C(O)C/C=C/[C@H]1[C@H](O)CC(=O)[C@@H]1CCCCCCC(=O)OC (stereo partly drawn) [TR 4814, Methyl 11α, 16RS-dihydroxy-17-methyl-9-oxoprost-13E-oate, reference compound] | – | – | 1 | –
O=C1C[C@@H](O)[C@H](/C=C/CC2(O)CC3CCCC32)[C@H]1CCCCCCCO (stereo partly drawn) [TR 4799, 16, 18-Methano-17, 20-methano-1, 11α, 16RS-trihydroxyprost-13E-en-9-one] | – | – | 0 | –
CCCCC(O)C/C=C/[C@H]1[C@H](O)CC(=O)[C@@H]1CCCCCCCO (stereo partly drawn) [TR 4706, 1,11α,16RS-trihydroxyprost-13E-en-9-one] | the same | the same | 0 | –
CCCCC(C)(O)C/C=C/[C@H]1[C@H](O)CC(=O)[C@@H]1CCCCCCCO (stereo partly drawn) [TR 4698, 16-methyl-1,11α,16RS-trihydroxyprost-13E-en-9-one] | the same | the same | 1 | –
CCCC(C)(C)C(O)C/C=C/[C@H]1[C@H](O)CC(=O)[C@@H]1CCCCCCCO (single isomer, unassigned) [TR 4752, 1, 11α, 16R or S-trihydroxy-17-dimethylprost-13E-en-9-one] | – | – | 0 | no GAS activity
CC1CCCC(O)(C/C=C/[C@H]2[C@H](O)CC(=O)[C@@H]2CCCCCCCO)C1 (stereo partly drawn) [TR 4851, 16, 20-Methano-18RS-methyl-1, 11α, 16RS-trihydroxyprost-13E-en-9-one] | – | – | 0 | –
COC(=O)CCCCCC[C@H]1C(=O)C[C@@H](O)[C@@H]1/C=C/CC1(O)CC2CCCCC21 (stereo partly drawn) [TR 4808, Methyl 11α, 16RS-dihydroxy-17, 20-ethano-16, 18-methano-9-oxoprost-13E-en-1-oate] | – | – | 0 | –
COC(=O)CCCCCC[C@H]1C(=O)C[C@@H](O)[C@@H]1/C=C/[C@H]1CCCC[C@@H]1O [TR 4767, Methyl 15R, 20-cyclo-11α, 16-trans-dihydro-9-oxoprost-13E-en-1-oate] | – | – | 0 | –
